Test results as given in patent US8030354B2, “Substituted biphenyl GPR40 modulators” (Amgen Inc., priority 2007, dated 2011).

What was measured:
GPR40 [1] = biological target: T1, GPR40 (Homo sapiens, UniProt O14842); assay: Cell-based aequorin assay (CHO cells stably expressing GPR40 and aequorin); parameters: expressed in transfected cells; host or cells: CHO cells stably transfected with GPR40 and aequorin; conditions: activation of human GPR40, CHO cells, 0.01% HSA
In short: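 CHO cells stably co-expressing GPR40 and aequorin, loaded with coelenterazine (1 ug/mL, 2 h, room temperature) in H/HBSS with 20 mM Hepes and 0.01% fatty acid-free HSA. Serially diluted compounds added; luminescence recorded over 20 s. EC50 from dose-response of maximum relative light units.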

GPR40 [2] = biological target: T1, GPR40; assay: Inositol phosphate accumulation assay (A9_GPR40 cells); type: cell-based; parameters: expressed in transfected cells; host or cells: CHO cells stably transfected with GPR40 and aequorin; conditions: inositol phosphate assay, A9_GPR40 cells, 1 hour; read-out: IP3 EC50
In short: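 [^3H] inositol phosphate accumulation was measured by SPA after 1 h compound exposure at 37° C in HBSS/10 mM LiCl containing HSA, ending with a 20 mM formic acid quench. The GPR40-transfected A9 cells had first been labelled overnight (16 h) with 1 μCi/mL ^3H-inositol.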

T1 sequence (O14842 whole entry): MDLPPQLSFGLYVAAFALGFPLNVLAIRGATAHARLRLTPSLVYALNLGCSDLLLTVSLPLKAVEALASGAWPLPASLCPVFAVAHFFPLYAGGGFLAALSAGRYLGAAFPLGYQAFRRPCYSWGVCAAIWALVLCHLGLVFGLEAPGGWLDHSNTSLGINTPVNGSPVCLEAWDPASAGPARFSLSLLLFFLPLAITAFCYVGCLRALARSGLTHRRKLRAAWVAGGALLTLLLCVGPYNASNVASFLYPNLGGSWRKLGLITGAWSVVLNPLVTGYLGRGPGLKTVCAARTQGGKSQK

| EC50 (GPR40 [1]) | EC50 (GPR40 [2]) | Compound |
| --- | --- | --- |
| 100 to 1000 nM | 10 to 100 nM | CC[C@H](CC(=O)O)c1cccc(OCc2ccc(-c3cc(OC)ccc3F)c(C3CCCCCC3)c2)c1 (single isomer, unassigned) [Example 78.7, (3R)-3-(3-(((2-Cycloheptyl-2′-fluoro-5′-(methyloxy)-1,1′-biphenyl-4-yl)methyl)oxy)phenyl)pentanoic acid or (3S)-3-(3-(((2-cycloheptyl-2′-fluoro-5′-(methyloxy)-1,1′-biphenyl-4-yl)methyl)oxy)phenyl)pentanoic acid] |
| 100 to 1000 nM | 10 to 100 nM | CC[C@H](CC(=O)O)c1cccc(OCc2ccc(-c3cccc(OC)c3)c(C3CCCCCC3)c2)c1 (single isomer, unassigned) [Example 78.8, (3R)-3-(3-(((2-Cycloheptyl-3′-(methyloxy)-1,1′-biphenyl-4-yl)methyl)oxy)phenyl)pentanoic acid or (3S)-3-(3-(((2-cycloheptyl-3′-(methyloxy)-1,1′-biphenyl-4-yl)methyl)oxy)phenyl)pentanoic acid] |
| 100 to 1000 nM | 10 to 100 nM | CC[C@H](CC(=O)O)c1cccc(OCc2ccc(-c3cc(Cl)ccc3F)c(C3=CCCC3(C)C)c2)c1 (single isomer, unassigned) [Example 78.9, (3R)-3-(3-(((5′-Chloro-2-(5,5-dimethyl-cyclopenten-1-yl)-2′-fluoro-1,1′-biphenyl-4-yl)methyl)oxy)phenyl)pentanoic acid or (3S)-3-(3-(((5′-chloro-2-(5,5-dimethyl-1-cyclopenten-1-yl)-2′-fluoro-1,1′-biphenyl-4-yl)methyl)oxy)phenyl)pentanoic acid] |
| 100 to 1000 nM | < 10 nM | CCC(CC(=O)O)c1cccc(OCc2cc(C3CCCC3(C)C)c(-c3cc(OC)ccc3F)cc2F)c1 (single isomer, unassigned) [Example 78.10] |
| 10 to 100 nM | < 10 nM | CCC(CC(=O)O)c1cccc(OCc2ccc(-c3cc(OC)ccc3F)c(C3CCCCC3(C)C)c2)c1 (single isomer, unassigned) [Example 78.11] |
| 10 to 100 nM | < 10 nM | CCC(CC(=O)O)c1cccc(OCc2ccc(-c3cc(OC)ccc3F)c(C(OC)C(C)(C)CC)c2)c1 (single isomer, unassigned) [Example 78.14] |
| 100 to 1000 nM | 10 to 100 nM | COc1ccc(F)c(-c2ccc(COc3cccc(C(CC(=O)O)C4CCC4)c3)cc2C2CCCC2(C)C)c1 (single isomer, unassigned) [Example 79.3] |
| 100 to 1000 nM | 10 to 100 nM | COc1cccc(-c2ccc(COc3cccc(C(CC(=O)O)C4CCC4)c3)cc2C2CCCC2(C)C)c1 (single isomer, unassigned) [Example 79.6] |
| 100 to 1000 nM | 10 to 100 nM | COc1ccc(F)c(-c2ccc(COc3cccc(C(CC(=O)O)C4CCC4)c3)cc2C2CCCCCC2)c1 (single isomer, unassigned) [Example 79.7, (3S)-3-(3-(((2-Cycloheptyl-2′-fluoro-5′-(methyloxy)-1,1′-biphenyl-4-yl)methyl)oxy)phenyl)-3-cyclobutylpropanoic acid or (3R)-3-(3-(((2-cycloheptyl-2′-fluoro-5′-(methyloxy)-1,1′-biphenyl-4-yl)methyl)oxy)phenyl)-3-cyclobutylpropanoic acid] |
| 100 to 1000 nM | 10 to 100 nM | COc1cccc(-c2ccc(COc3cccc(C(CC(=O)O)C4CCC4)c3)cc2C2CCCCCC2)c1 (single isomer, unassigned) [Example 79.8, (3S)-3-(3-(((2-Cycloheptyl-3′-(methyloxy)-1,1′-biphenyl-4-yl)methyl)oxy)phenyl)-3-cyclobutylpropanoic acid or (3R)-3-(3-(((2-cycloheptyl-3′-(methyloxy)-1,1′-biphenyl-4-yl)methyl)oxy)phenyl)-3-cyclobutylpropanoic acid] |
| 100 to 1000 nM | < 10 nM | CCCC(CC(=O)O)c1cccc(OCc2ccc(-c3cccc(OC)c3)c(C3CCCC3(C)C)c2)c1 (single isomer, unassigned) [Example 80.6] |
| 100 to 1000 nM | > 10000 nM | CCC(CC(=O)O)c1cccc(NCc2ccc(-c3cc(OC)ccc3F)c(C3=CCCC3(C)C)c2)c1 (single isomer, unassigned) [Example 81, (3R)-3-(3-(((2-(5,5-Dimethyl-1-cyclopenten-1-yl)-2′-fluoro-5′-(methyloxy)-1,1′-biphenyl-4-yl)methyl)amino)phenyl)pentanoic acid or (3S)-3-(3-(((2-(5,5-dimethyl-1-cyclopenten-1-yl)-2′-fluoro-5′-(methyloxy)-1,1′-biphenyl-4-yl)methyl)amino)phenyl)pentanoic acid] |
| 100 to 1000 nM | 1000 to 10000 nM | CC[C@H](CC(=O)O)c1cccc(SCc2ccc(-c3cc(OC)ccc3F)c([C@H]3CCCC3(C)C)c2)c1 (single isomer, unassigned) [Example 82] |
| 10 to 100 nM | < 10 nM | COc1ccc(F)c(-c2cc(F)c(COc3cccc([C@@H](CC(=O)O)C4CC4)c3F)cc2[C@H]2CCCC2(C)C)c1 (single isomer, unassigned) [Example 83.2] |
| 100 to 1000 nM | 10 to 100 nM | CC1(C)CCC[C@@H]1c1cc(COc2cccc([C@@H](CC(=O)O)C3CC3)c2F)ccc1-c1cc(C(F)F)ccc1F (single isomer, unassigned) [Example 83.3] |
| 10 to 100 nM | < 10 nM | COc1cc(-c2ccc(COc3cccc([C@@H](CC(=O)O)C4CC4)c3F)cc2[C@H]2CCCC2(C)C)c(F)cn1 (single isomer, unassigned) [Example 83.4] |
| 100 to 1000 nM | < 10 nM | COc1ccc(F)c(-c2ccc(COc3cccc(C(CC(=O)O)C4CC4)c3F)cc2C(C)C(C)(C)C)c1 (single isomer, unassigned) [Example 83.6] |
| 100 to 1000 nM | < 10 nM | COc1ccc(F)c(-c2ccc(COc3cccc(C(CC(=O)O)C4CC4)c3F)cc2C2CCCCC2(C)C)c1 (single isomer, unassigned) [Example 83.7] |
| 100 to 1000 nM | < 10 nM | COc1ccc(F)c(-c2ccc(COc3cccc(C(CC(=O)O)C4CC4)c3F)cc2C(OC)C(C)(C)C)c1 (single isomer, unassigned) [Example 83.8] |
| 100 to 1000 nM | < 10 nM | COc1ccc(F)c(-c2ccc(COc3cccc(C(CC(=O)O)C4CC4)c3F)cc2C(F)C(C)(C)C)c1 (single isomer, unassigned) [Example 83.9] |
| 100 to 1000 nM | 10 to 100 nM | CCO[C@H](c1cc(COc2cccc([C@@H](CC(=O)O)C3CC3)c2F)ccc1-c1ccccc1F)C(C)(C)C (single isomer, unassigned) [Example 83.10] |
| 100 to 1000 nM | 10 to 100 nM | COCCO[C@H](c1cc(COc2cccc([C@@H](CC(=O)O)C3CC3)c2F)ccc1-c1ccccc1F)C(C)(C)C (single isomer, unassigned) [Example 83.11] |

| Compound | EC50 (GPR40 [1]) | EC50 (GPR40 [2]) |
| --- | --- | --- |
| COc1ccc(F)c(-c2ccc(COc3cccc([C@@H](CC(=O)O)C4CCC4)c3)cc2[C@@H]2CCCC2(C)C)c1 (single isomer, unassigned) [Example 79.4] | 10 to 100 nM | < 10 nM |
| CCC[C@H](CC(=O)O)c1cccc(OCc2ccc(-c3cc(OC)ccc3F)c([C@H]3CCCC3(C)C)c2)c1 (single isomer, unassigned) [Example 80.4] | 100 to 1000 nM | < 10 nM |
| COc1cc(-c2ccc(COc3cccc([C@@H](CC(=O)O)C4CC4)c3F)cc2[C@@H]2CCCC2(C)C)c(F)cn1 (single isomer, unassigned) [Example 83.5] | 100 to 1000 nM | 10 to 100 nM |
